In patent publication US9265253B2, “Use of macrocyclic picolinamides as fungicides” (DOW AGROSCIENCES LLC, priority 2013, dated 2016):

What follows are compounds tested on Mycosphaerella graminicola; Anamorph: Septoria tritici (assay: Leaf Blotch of Wheat (SEPTTR) disease control). Details: Zymoseptoria tritici, 24 h, 1 Day Protectant, rate 100 ppm; read-out: SEPTTR 1 DP disease control.
Assay type: in vivo
Outline: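 Percent disease control is derived from Septoria tritici leaf blotch severity (0 to 100 percent) on treated versus untreated wheat seedlings. Plants get fungicide spray to run-off, with inoculation either preceding or following application, then humid incubation at 20° C.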
With `COCC[C@H]1CCC[C@H](NC(=O)c2nccc(OC)c2OCOC(C)=O)C(=O)O[C@@H](C)[C@@H]1OCC(C)C` [Compound F132] the pest or weed control at 100 ppm was 80 to 100%.
`COc1ccnc(C(=O)N[C@H]2CCC[C@H](CCC(C)C)[C@@H](OCC3CC3)[C@H](C)OC2=O)c1OC(C)=O` [Compound F63] gave a pest or weed control at 100 ppm of 80 to 100%.
`COc1ccnc(C(=O)N[C@H]2CCC[C@H](CCC(C)C)[C@@H](OCC3CC3)[C@H](C)OC2=O)c1OCOC(C)=O` [Compound F91] gave a pest or weed control at 100 ppm of 80 to 100%.
With `COc1ccnc(C(=O)N[C@H]2CCC[C@H](C)[C@@H](Oc3ccccc3)[C@H](C)OC2=O)c1OCOC(C)=O` [Compound F124] the pest or weed control at 100 ppm was 80 to 100%.
`CCOCC(=O)OCOc1c(OC)ccnc1C(=O)N[C@H]1CCC[C@H](CCOC)[C@@H](OCC(C)C)[C@H](C)OC1=O` [Compound F187] gave a pest or weed control at 100 ppm of 80 to 100%.

Same assay, conditions: Zymoseptoria tritici, 24 h, 1 Day Protectant, rate 121.5 g/H; read-out: SEPTTR 1 DP disease control
For `COCC[C@H]1CCC[C@H](NC(=O)c2nccc(OC)c2OCOC(C)=O)C(=O)O[C@@H](C)[C@@H]1OCC(C)C` [Compound F132], the pest or weed control at 121.5 g/ha was 80 to 100%.
`COc1ccnc(C(=O)N[C@H]2CCC[C@H](CCC(C)C)[C@@H](OCC3CC3)[C@H](C)OC2=O)c1OC(C)=O` [Compound F63] showed a pest or weed control at 121.5 g/ha of 80 to 100%.
`COc1ccnc(C(=O)N[C@H]2CCC[C@H](CCC(C)C)[C@@H](OCC3CC3)[C@H](C)OC2=O)c1OCOC(C)=O` [Compound F91] gave a pest or weed control at 121.5 g/ha of 80 to 100%.
Compound `COc1ccnc(C(=O)N[C@H]2CCC[C@H](C)[C@@H](Oc3ccccc3)[C@H](C)OC2=O)c1OCOC(C)=O` [Compound F124] has a pest or weed control at 121.5 g/ha of 80 to 100%.
With `CCOCC(=O)OCOc1c(OC)ccnc1C(=O)N[C@H]1CCC[C@H](CCOC)[C@@H](OCC(C)C)[C@H](C)OC1=O` [Compound F187] the pest or weed control at 121.5 g/ha was 80 to 100%.

Same assay, conditions: Zymoseptoria tritici, 72 h, 3 Day Curative, rate 100 ppm; read-out: SEPTTR 3 DC disease control
`COCC[C@H]1CCC[C@H](NC(=O)c2nccc(OC)c2OCOC(C)=O)C(=O)O[C@@H](C)[C@@H]1OCC(C)C` [Compound F132] showed a pest or weed control at 100 ppm of 80 to 100%.
With `COc1ccnc(C(=O)N[C@H]2CCC[C@H](CCC(C)C)[C@@H](OCC3CC3)[C@H](C)OC2=O)c1OC(C)=O` [Compound F63] the pest or weed control at 100 ppm was 80 to 100%.
Compound `COc1ccnc(C(=O)N[C@H]2CCC[C@H](CCC(C)C)[C@@H](OCC3CC3)[C@H](C)OC2=O)c1OCOC(C)=O` [Compound F91] has a pest or weed control at 100 ppm of 80 to 100%.
In the case of `COc1ccnc(C(=O)N[C@H]2CCC[C@H](C)[C@@H](Oc3ccccc3)[C@H](C)OC2=O)c1OCOC(C)=O` [Compound F124], the pest or weed control at 100 ppm was 80 to 100%.
For `CCOCC(=O)OCOc1c(OC)ccnc1C(=O)N[C@H]1CCC[C@H](CCOC)[C@@H](OCC(C)C)[C@H](C)OC1=O` [Compound F187], the pest or weed control at 100 ppm was 80 to 100%.

Same assay, conditions: Zymoseptoria tritici, 72 h, 3 Day Curative, rate 121.5 g/H; read-out: SEPTTR 3 DC disease control
With `COCC[C@H]1CCC[C@H](NC(=O)c2nccc(OC)c2OCOC(C)=O)C(=O)O[C@@H](C)[C@@H]1OCC(C)C` [Compound F132] the pest or weed control at 121.5 g/ha was 80 to 100%.
In the case of `COc1ccnc(C(=O)N[C@H]2CCC[C@H](CCC(C)C)[C@@H](OCC3CC3)[C@H](C)OC2=O)c1OC(C)=O` [Compound F63], the pest or weed control at 121.5 g/ha was 80 to 100%.
In the case of `COc1ccnc(C(=O)N[C@H]2CCC[C@H](CCC(C)C)[C@@H](OCC3CC3)[C@H](C)OC2=O)c1OCOC(C)=O` [Compound F91], the pest or weed control at 121.5 g/ha was 80 to 100%.
Compound `COc1ccnc(C(=O)N[C@H]2CCC[C@H](C)[C@@H](Oc3ccccc3)[C@H](C)OC2=O)c1OCOC(C)=O` [Compound F124] has a pest or weed control at 121.5 g/ha of 80 to 100%.
Compound `CCOCC(=O)OCOc1c(OC)ccnc1C(=O)N[C@H]1CCC[C@H](CCOC)[C@@H](OCC(C)C)[C@H](C)OC1=O` [Compound F187] has a pest or weed control at 121.5 g/ha of 80 to 100%.

These compounds were tested on Phakopsora pachyrhizi (assay: Asian Soybean Rust (PHAKPA) disease control). Details: Phakopsora pachyrhizi, topical, 24 h, 1 Day Protectant, read-out: Disease Control PHAKPA 1DP.
Assay type: in vivo
Description: Technical grades of materials were dissolved in acetone, which were then mixed with nine volumes of water containing 0.011% Tween 20. The fungicide solutions were applied onto soybean seedlings using an automated booth sprayer to run-off. All sprayed plants were allowed to air dry prior to further handling.
Soybean plants (variety Williams 82) were grown in soil-less Metro mix, with one plant per pot. Two weeks old seedlings were used for testing. Plants were inoculated either 3 days prior to or 1 day after fungicide treatments. Plants were incubated for 24 h in a dark dew room at 22° C. and 100% RH then transferred to a growth room at 23° C. for disease to develop. Disease severity was assessed on the sprayed leaves.
`COCC[C@H]1CCC[C@H](NC(=O)c2nccc(OC)c2OCOC(C)=O)C(=O)O[C@@H](C)[C@@H]1OCC(C)C` [Compound F132] was tested, and the pest or weed control at 25 ppm was 80 to 100%.
Compound `COc1ccnc(C(=O)N[C@H]2CCC[C@H](CCC(C)C)[C@@H](OCC3CC3)[C@H](C)OC2=O)c1OC(C)=O` [Compound F63] has a pest or weed control at 25 ppm of 80 to 100%.
`COc1ccnc(C(=O)N[C@H]2CCC[C@H](CCC(C)C)[C@@H](OCC3CC3)[C@H](C)OC2=O)c1OCOC(C)=O` [Compound F91] showed a pest or weed control at 25 ppm of 80 to 100%.
Work on `COc1ccnc(C(=O)N[C@H]2CCC[C@H](C)[C@@H](Oc3ccccc3)[C@H](C)OC2=O)c1OCOC(C)=O` [Compound F124] yielded a pest or weed control at 25 ppm of 80 to 100%.
With `CCOCC(=O)OCOc1c(OC)ccnc1C(=O)N[C@H]1CCC[C@H](CCOC)[C@@H](OCC(C)C)[C@H](C)OC1=O` [Compound F187] the pest or weed control at 25 ppm was 80 to 100%.

Same assay, conditions: Phakopsora pachyrhizi, topical, 72 h, 3 Day Curative, read-out: Disease Control PHAKPA 3DC
`COCC[C@H]1CCC[C@H](NC(=O)c2nccc(OC)c2OCOC(C)=O)C(=O)O[C@@H](C)[C@@H]1OCC(C)C` [Compound F132] gave a pest or weed control at 25 ppm of 80 to 100%.
For `COc1ccnc(C(=O)N[C@H]2CCC[C@H](CCC(C)C)[C@@H](OCC3CC3)[C@H](C)OC2=O)c1OC(C)=O` [Compound F63], the pest or weed control at 25 ppm was 80 to 100%.
For `COc1ccnc(C(=O)N[C@H]2CCC[C@H](CCC(C)C)[C@@H](OCC3CC3)[C@H](C)OC2=O)c1OCOC(C)=O` [Compound F91], the pest or weed control at 25 ppm was 80 to 100%.
For `COc1ccnc(C(=O)N[C@H]2CCC[C@H](C)[C@@H](Oc3ccccc3)[C@H](C)OC2=O)c1OCOC(C)=O` [Compound F124], the pest or weed control at 25 ppm was 80 to 100%.
With `CCOCC(=O)OCOc1c(OC)ccnc1C(=O)N[C@H]1CCC[C@H](CCOC)[C@@H](OCC(C)C)[C@H](C)OC1=O` [Compound F187] the pest or weed control at 25 ppm was 80 to 100%.

What follows are compounds tested on Puccinia triticina; Synonym: Puccinia recondite f. Sp. Tritici (assay: Wheat Brown Rust (PUCCRT) disease control). Details: Puccinia triticina, topical, 24 h, 1 Day Protectant, rate 100 ppm; read-out: PUCCRT 1 DP disease control.
Assay type: in vivo
Outline: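 Brown rust on first-leaf Yuma wheat: spore inoculation before or after spray application (acetone/Triton X-100 solution, or EC with Trycol in track spray), overnight 100% RH at 22 °C, disease developed at 24 °C. Severity scored 0–100% and converted to percent control against untreated.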
Work on `COCC[C@H]1CCC[C@H](NC(=O)c2nccc(OC)c2OCOC(C)=O)C(=O)O[C@@H](C)[C@@H]1OCC(C)C` [Compound F132] yielded a pest or weed control at 100 ppm of 80 to 100%.
For `COc1ccnc(C(=O)N[C@H]2CCC[C@H](CCC(C)C)[C@@H](OCC3CC3)[C@H](C)OC2=O)c1OC(C)=O` [Compound F63], the pest or weed control at 100 ppm was 80 to 100%.
Work on `COc1ccnc(C(=O)N[C@H]2CCC[C@H](CCC(C)C)[C@@H](OCC3CC3)[C@H](C)OC2=O)c1OCOC(C)=O` [Compound F91] yielded a pest or weed control at 100 ppm of 80 to 100%.
With `COc1ccnc(C(=O)N[C@H]2CCC[C@H](C)[C@@H](Oc3ccccc3)[C@H](C)OC2=O)c1OCOC(C)=O` [Compound F124] the pest or weed control at 100 ppm was 80 to 100%.
In the case of `CCOCC(=O)OCOc1c(OC)ccnc1C(=O)N[C@H]1CCC[C@H](CCOC)[C@@H](OCC(C)C)[C@H](C)OC1=O` [Compound F187], the pest or weed control at 100 ppm was 80 to 100%.

Same assay, conditions: Puccinia triticina, topical, 24 h, 1 Day Protectant, rate 121.5 g/H; read-out: PUCCRT 1 DP disease control
Work on `COCC[C@H]1CCC[C@H](NC(=O)c2nccc(OC)c2OCOC(C)=O)C(=O)O[C@@H](C)[C@@H]1OCC(C)C` [Compound F132] yielded a pest or weed control at 121.5 g/ha of 80 to 100%.
With `COc1ccnc(C(=O)N[C@H]2CCC[C@H](CCC(C)C)[C@@H](OCC3CC3)[C@H](C)OC2=O)c1OC(C)=O` [Compound F63] the pest or weed control at 121.5 g/ha was 80 to 100%.
In the case of `COc1ccnc(C(=O)N[C@H]2CCC[C@H](CCC(C)C)[C@@H](OCC3CC3)[C@H](C)OC2=O)c1OCOC(C)=O` [Compound F91], the pest or weed control at 121.5 g/ha was 80 to 100%.
Compound `COc1ccnc(C(=O)N[C@H]2CCC[C@H](C)[C@@H](Oc3ccccc3)[C@H](C)OC2=O)c1OCOC(C)=O` [Compound F124] has a pest or weed control at 121.5 g/ha of 80 to 100%.
With `CCOCC(=O)OCOc1c(OC)ccnc1C(=O)N[C@H]1CCC[C@H](CCOC)[C@@H](OCC(C)C)[C@H](C)OC1=O` [Compound F187] the pest or weed control at 121.5 g/ha was 80 to 100%.

Same assay, conditions: Puccinia triticina, topical, 72 h, 3 Day Curative, rate 100 ppm; read-out: PUCCRT 3 DC disease control
`COCC[C@H]1CCC[C@H](NC(=O)c2nccc(OC)c2OCOC(C)=O)C(=O)O[C@@H](C)[C@@H]1OCC(C)C` [Compound F132] was tested, and the pest or weed control at 100 ppm was 80 to 100%.
In the case of `COc1ccnc(C(=O)N[C@H]2CCC[C@H](CCC(C)C)[C@@H](OCC3CC3)[C@H](C)OC2=O)c1OC(C)=O` [Compound F63], the pest or weed control at 100 ppm was 80 to 100%.
Work on `COc1ccnc(C(=O)N[C@H]2CCC[C@H](CCC(C)C)[C@@H](OCC3CC3)[C@H](C)OC2=O)c1OCOC(C)=O` [Compound F91] yielded a pest or weed control at 100 ppm of 80 to 100%.
`COc1ccnc(C(=O)N[C@H]2CCC[C@H](C)[C@@H](Oc3ccccc3)[C@H](C)OC2=O)c1OCOC(C)=O` [Compound F124] gave a pest or weed control at 100 ppm of 80 to 100%.
Compound `CCOCC(=O)OCOc1c(OC)ccnc1C(=O)N[C@H]1CCC[C@H](CCOC)[C@@H](OCC(C)C)[C@H](C)OC1=O` [Compound F187] has a pest or weed control at 100 ppm of 80 to 100%.

Same assay, conditions: Puccinia triticina, topical, 72 h, 3 Day Curative, rate 121.5 g/H; read-out: PUCCRT 3 DC disease control
With `COCC[C@H]1CCC[C@H](NC(=O)c2nccc(OC)c2OCOC(C)=O)C(=O)O[C@@H](C)[C@@H]1OCC(C)C` [Compound F132] the pest or weed control at 121.5 g/ha was 80 to 100%.
With `COc1ccnc(C(=O)N[C@H]2CCC[C@H](CCC(C)C)[C@@H](OCC3CC3)[C@H](C)OC2=O)c1OC(C)=O` [Compound F63] the pest or weed control at 121.5 g/ha was 80 to 100%.
`COc1ccnc(C(=O)N[C@H]2CCC[C@H](CCC(C)C)[C@@H](OCC3CC3)[C@H](C)OC2=O)c1OCOC(C)=O` [Compound F91] was tested, and the pest or weed control at 121.5 g/ha was 80 to 100%.
`COc1ccnc(C(=O)N[C@H]2CCC[C@H](C)[C@@H](Oc3ccccc3)[C@H](C)OC2=O)c1OCOC(C)=O` [Compound F124] was tested, and the pest or weed control at 121.5 g/ha was 80 to 100%.
In the case of `CCOCC(=O)OCOc1c(OC)ccnc1C(=O)N[C@H]1CCC[C@H](CCOC)[C@@H](OCC(C)C)[C@H](C)OC1=O` [Compound F187], the pest or weed control at 121.5 g/ha was 80 to 100%.
